Source: patent publication US10842152B2, “Isothiazolo-based bicycles, processes for their preparation and their use as herbicides and/or plant growth regulators” (Bayer CropScience Aktiengesellschaft, priority 2017, dated 2020)

Experiments:
Setaria viridis [1] = assay: Herbicidal effect pre-emergence; format: in vivo; conditions: 320 g/ha, visual grading after ca. 3 weeks vs untreated controls
How it was run: (§1)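 Pre-emergence: WP or EC formulations applied as aqueous suspension/emulsion with 0.5% additive at 600 l water/ha onto covering soil of freshly sown pots in sandy loam. Greenhouse under optimum conditions; visual damage scored after ca. 3 weeks versus untreated controls (100% = plants died, 0% = as control).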

Amaranthus retroflexus [2] = assay: Herbicidal effect pre-emergence; format: in vivo; conditions: 320 g/ha, visual grading after ca. 3 weeks vs untreated controls
How it was run: as §1

Viola tricolor [3] = assay: Herbicidal effect pre-emergence; format: in vivo; conditions: 320 g/ha, visual grading after ca. 3 weeks vs untreated controls
How it was run: as §1

Stellaria media [4] = assay: Herbicidal effect pre-emergence; format: in vivo; conditions: 320 g/ha, visual grading after ca. 3 weeks vs untreated controls
How it was run: as §1

Alopecurus myosuroides = assay: Herbicidal effect pre-emergence; format: in vivo; conditions: 320 g/ha, visual grading after ca. 3 weeks vs untreated controls
How it was run: as §1

MATIN [5] = assay: Herbicidal effect pre-emergence; format: in vivo, Matricaria inodora; conditions: 320 g/ha, visual grading after ca. 3 weeks vs untreated controls
Excerpt: Seeds of mono- and dicotyledonous weed plants and crop plants are sown in wood-fiber pots in sandy loam and covered with soil. The compounds according to the invention, formulated in the form of wettable powders (WP) or as emulsifiable concentrates (EC), are then applied to the surface of the covering soil as aqueous suspension or emulsion, with the addition of 0.5% of an additive, at an application rate of 600 l of water/ha (converted).
Following treatment, the pots are placed in a greenhouse and kept under optimum growth conditions for the test plants. The visual grading of the damage to the test plants is carried out after ca. 3 weeks in comparison to untreated controls (herbicidal effect in percent (%): 100% effect=plants have died off, 0% effect=as control plants).

Setaria viridis [6] = assay: Herbicidal effect post-emergence; format: in vivo; conditions: 320 g/ha
How it was run: (§2)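 Greenhouse plants in sandy loam sprayed post-emergence at single-leaf stage (2-3 weeks after sowing) with WP or EC formulations plus 0.5% additive at 600 l water/ha. Damage scored visually after ca. 3 weeks versus untreated controls, 0% (as control) to 100% (dead).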

Amaranthus retroflexus [7] = assay: Herbicidal effect post-emergence; format: in vivo; conditions: 320 g/ha
How it was run: as §2

Viola tricolor [8] = assay: Herbicidal effect post-emergence; format: in vivo; conditions: 320 g/ha
How it was run: as §2

Abutilon theophrasti = assay: Herbicidal effect post-emergence; format: in vivo; conditions: 320 g/ha, visual grading after ca. 3 weeks (Table 8)
How it was run: as §2

MATIN [9] = assay: Herbicidal effect post-emergence; format: in vivo, Matricaria inodora; conditions: 320 g/ha, visual grading after ca. 3 weeks (Table 7)
Excerpt: Seeds of mono- and dicotyledonous weed plants and crop plants are sown in wood-fiber pots in sandy loam, covered with soil and grown in a greenhouse under controlled growth conditions. 2 to 3 weeks after sowing, the test plants are sprayed in the single-leaf stage. The compounds according to the invention, formulated in form of wettable powders (WP) or as emulsifiable concentrates (EC), are then sprayed onto the green plant parts as aqueous suspension or emulsion, with the addition of 0.5% of an additive, at an application rate of 600 l of water/ha (converted). After the test plants had been in the greenhouse for ca. 3 weeks under optimum growth conditions, the effect of the preparations is assessed visually in comparison with untreated controls (herbicidal effect in percent (%): 100% effect=plants have died off, 0% effect=as control plants).

Nilaparvata lugens = Nilaparvata lugens spray test; format: in vivo; conditions: application rate 500 g/ha, after 4 days, rice plants
Method: (§3) Solvent: 78.0 parts by weight of acetone • • 1.5 parts by weight of dimethylformamide
(§4) Emulsifier: alkylarylpolyglycol ether
To produce a suitable preparation of active compound, 1 part by weight of active compound is mixed with the stated amount of solvents and is diluted with water, containing an emulsifier concentration of 1000 ppm, to the desired concentration. Further test concentrations are prepared by dilution with emulsifier containing water.
Rice plants (Oryza sativa) are sprayed with a preparation of the active ingredient of the desired concentration and the plants are infested with the brown planthopper (Nilaparvata lugens).
After 4 days mortality in % is determined. 100% means all planthoppers have been killed and 0% means none of the planthoppers have been killed.

[10] = system: Polygonum convolvulus (=Fallopia convolvulus); assay: Herbicidal effect post-emergence; format: in vivo; conditions: 320 g/ha, visual grading after ca. 3 weeks (Table 7)
How it was run: as §2

Pharbitis purpurea = assay: Herbicidal effect post-emergence; format: in vivo; conditions: 320 g/ha, visual grading after ca. 3 weeks (Table 7)
How it was run: as §2

Stellaria media [11] = assay: Herbicidal effect post-emergence; format: in vivo; conditions: 320 g/ha, visual grading after ca. 3 weeks (Table 7)
How it was run: as §2

Meloidogyne incognita = Meloidogyne incognita test; format: in vivo; conditions: application rate 20 ppm, after 14 days, salad seedlings
Method: Solvent: 125.0 parts by weight of acetone
To produce a suitable preparation of active compound, 1 part by weight of active compound is mixed with the stated amount of solvent, and the concentrate is diluted with water to the desired concentration.
Vessels are filled with sand, a solution of the active ingredient, a suspension containing eggs and larvae of the southern root-knot nematode (Meloidogyne incognita) and salad seeds. The salad seeds germinate and the seedlings grow. Galls develop in the roots.
After 14 days the nematicidal activity is determined on the basis of the percentage of gall formation. 100% means no galls were found and 0% means the number of galls found on the roots of the treated plants was equal to that in untreated control plants.

Nezara viridula = Nezara viridula spray test; format: in vivo; conditions: application rate 500 g/ha, after 4 days, barley plants
Method: as §3, §4
To produce a suitable preparation of active compound, 1 part by weight of active compound is mixed with the stated amount of solvent, and the concentrate is diluted with water, containing an emulsifier concentration of 1000 ppm, to the desired concentration. Further test concentrations are prepared by dilution with emulsifier containing water.
Barley plants (Hordeum vulgare) infested with larvae of the southern green stink bug (Nezara viridula) are sprayed with a test solution containing the desired concentration of the active ingredient.
After 4 days mortality in % is determined. 100% means all the stink bugs have been killed; 0% means none of the stink bugs have been killed.

[12] = visual grading after ca. 3 weeks (Table 8)
[13] = visual grading after ca. 3 weeks (Table 7)
[14] = visual grading after ca. 3 weeks (Table 9)

CCC(=O)Nc1nsc2c(=O)n(CC3CCCCC3Cl)cc(Cl)c12 (racemic) [Example I-172]
100%: herbicidal effect SETVI (Setaria viridis [1]) | herbicidal effect AMARE (Amaranthus retroflexus [2]) | herbicidal effect VIOTR (Viola tricolor [3]) | herbicidal effect STEME (Stellaria media [4]) | herbicidal effect ALOMY (Alopecurus myosuroides) | herbicidal effect MATIN (MATIN [5]) | herbicidal effect AMARE (Amaranthus retroflexus [7]; [12]) | herbicidal effect VIOTR (Viola tricolor [8]; [12]) | herbicidal effect ABUTH (Abutilon theophrasti)
80%: herbicidal effect SETVI (Setaria viridis [6]; [12])

Nc1nsc2c1CC(CO)N(CC1CCCCC1)C2=O (stereo not drawn) [Example I-007]
100%: herbicidal effect AMARE (Amaranthus retroflexus [2]) | herbicidal effect MATIN (MATIN [9]) | mortality (Nilaparvata lugens) | herbicidal effect SETVI (Setaria viridis [6]; [13]) | herbicidal effect AMARE (Amaranthus retroflexus [7]; [13]) | herbicidal effect POLCO [10] | herbicidal effect PHBPU (Pharbitis purpurea) | herbicidal effect VIOTR (Viola tricolor [8]; [13]) | herbicidal effect STEME (Stellaria media [11])
90%: herbicidal effect VIOTR (Viola tricolor [3])
80%: herbicidal effect SETVI (Setaria viridis [1])

Nc1nsc2c(=O)n(CC3CCCCC3)c(COC3CCCCO3)cc12 (stereo not drawn) [Example I-038]
90%: nematicidal activity (gall formation) (Meloidogyne incognita)

CCC(=O)OCC1Cc2c(N)nsc2C(=O)N1CC1CCCCC1 (stereo not drawn) [Example I-039]
100%: herbicidal effect SETVI (Setaria viridis [1]) | herbicidal effect AMARE (Amaranthus retroflexus [2]) | herbicidal effect VIOTR (Viola tricolor [3]) | herbicidal effect SETVI (Setaria viridis [6]; [12]) | herbicidal effect AMARE (Amaranthus retroflexus [7]; [12]) | herbicidal effect VIOTR (Viola tricolor [8]; [12]) | herbicidal effect ABUTH (Abutilon theophrasti)

CCC(=O)N(C(=O)CC)c1nsc2c(=O)n(CC3CCCCC3)c(COC3CCCCO3)cc12 (stereo not drawn) [Example I-042]
90%: nematicidal activity (gall formation) (Meloidogyne incognita) | herbicidal effect SETVI (Setaria viridis [6]; [14])
100%: herbicidal effect AMARE (Amaranthus retroflexus [7]; [14]) | herbicidal effect VIOTR (Viola tricolor [8]; [14])

CCC(=O)N(C(=O)CC)c1nsc2c(=O)n(CC3CCCCC3)c(CO)cc12 [Example I-049]
100%: herbicidal effect SETVI (Setaria viridis [1]) | herbicidal effect AMARE (Amaranthus retroflexus [2]) | herbicidal effect STEME (Stellaria media [4]) | herbicidal effect SETVI (Setaria viridis [6]; [14]) | herbicidal effect VIOTR (Viola tricolor [8]; [14])
90%: nematicidal activity (gall formation) (Meloidogyne incognita) | herbicidal effect VIOTR (Viola tricolor [3]) | herbicidal effect AMARE (Amaranthus retroflexus [7]; [14])
80%: herbicidal effect ALOMY (Alopecurus myosuroides) | herbicidal effect MATIN (MATIN [5])

CC(C)Cc1cc2c(N)nsc2c(=O)n1CC1CCCCC1 [Example I-050]
90%: nematicidal activity (gall formation) (Meloidogyne incognita)

CCC(=O)Nc1nsc2c(=O)n(CC3CCCCC3)cc(Br)c12 [Example I-078]
90%: mortality (Nezara viridula)
80%: herbicidal effect VIOTR (Viola tricolor [8]; [14])
100%: herbicidal effect SETVI (Setaria viridis [1]) | herbicidal effect AMARE (Amaranthus retroflexus [2]) | herbicidal effect VIOTR (Viola tricolor [3]) | herbicidal effect STEME (Stellaria media [4]) | herbicidal effect ALOMY (Alopecurus myosuroides) | herbicidal effect MATIN (MATIN [5]) | herbicidal effect SETVI (Setaria viridis [6]; [14]) | herbicidal effect AMARE (Amaranthus retroflexus [7]; [14])

CCC(=O)Nc1nsc2c(=O)n(CC3CCCCC3)cc(Cl)c12 [Example I-083]
100%: herbicidal effect SETVI (Setaria viridis [1]) | herbicidal effect AMARE (Amaranthus retroflexus [2]) | herbicidal effect VIOTR (Viola tricolor [3]) | herbicidal effect STEME (Stellaria media [4]) | herbicidal effect ALOMY (Alopecurus myosuroides) | herbicidal effect MATIN (MATIN [5]) | herbicidal effect SETVI (Setaria viridis [6]; [12]) | herbicidal effect AMARE (Amaranthus retroflexus [7]; [12]) | herbicidal effect VIOTR (Viola tricolor [8]; [12])
80%: herbicidal effect ABUTH (Abutilon theophrasti)

COCC(=O)Nc1nsc2c(=O)n(CC3CCCCC3)cc(Br)c12 [Example I-087]
90%: mortality (Nezara viridula) | herbicidal effect MATIN (MATIN [5])
100%: herbicidal effect SETVI (Setaria viridis [1]) | herbicidal effect AMARE (Amaranthus retroflexus [2]) | herbicidal effect VIOTR (Viola tricolor [3]) | herbicidal effect STEME (Stellaria media [4]) | herbicidal effect ALOMY (Alopecurus myosuroides) | mortality (Nilaparvata lugens) | herbicidal effect SETVI (Setaria viridis [6]; [14]) | herbicidal effect AMARE (Amaranthus retroflexus [7]; [14]) | herbicidal effect VIOTR (Viola tricolor [8]; [14])

CC(=O)Nc1nsc2c(=O)n(CC3CCCCC3)cc(Br)c12 [Example I-102]
90%: mortality (Nezara viridula)
100%: herbicidal effect SETVI (Setaria viridis [1]) | herbicidal effect AMARE (Amaranthus retroflexus [2]) | herbicidal effect VIOTR (Viola tricolor [3]) | herbicidal effect SETVI (Setaria viridis [6]; [14]) | herbicidal effect AMARE (Amaranthus retroflexus [7]; [14]) | herbicidal effect VIOTR (Viola tricolor [8]; [14])

Nc1nsc2c(=O)n(Cc3cc(F)c(F)cc3F)cc(F)c12 [Example I-163]
100%: herbicidal effect SETVI (Setaria viridis [1]) | herbicidal effect AMARE (Amaranthus retroflexus [2]) | herbicidal effect VIOTR (Viola tricolor [3]) | herbicidal effect STEME (Stellaria media [4]) | herbicidal effect ALOMY (Alopecurus myosuroides) | herbicidal effect MATIN (MATIN [5]) | herbicidal effect AMARE (Amaranthus retroflexus [7]; [12])
90%: herbicidal effect SETVI (Setaria viridis [6]; [12]) | herbicidal effect VIOTR (Viola tricolor [8]; [12]) | herbicidal effect ABUTH (Abutilon theophrasti)

O=C(Nc1nsc2c(=O)n(Cc3cc(F)c(F)cc3F)cc(F)c12)C(F)F [Example I-165]
90%: herbicidal effect SETVI (Setaria viridis [6]; [13])
100%: herbicidal effect SETVI (Setaria viridis [1]) | herbicidal effect AMARE (Amaranthus retroflexus [2]) | herbicidal effect VIOTR (Viola tricolor [3]) | herbicidal effect STEME (Stellaria media [4]) | herbicidal effect ALOMY (Alopecurus myosuroides) | herbicidal effect MATIN (MATIN [9]) | herbicidal effect MATIN (MATIN [5]) | herbicidal effect AMARE (Amaranthus retroflexus [7]; [13]) | herbicidal effect POLCO [10] | herbicidal effect VIOTR (Viola tricolor [8]; [13]) | herbicidal effect STEME (Stellaria media [11])
80%: herbicidal effect PHBPU (Pharbitis purpurea)
